US9340590B2 (priority 2011, dated 2016)
pIC50: −log10 of the molar value. Where two headings read alike, the source gives them in different places. Positions of bridges follow the written chain, without caps; N, C: chain ends. Residues, ends and D or L forms follow the SMILES beside them.

Legend:
Assay in all cases: cell-based
[1] = biological target: hNav1.3 (Homo sapiens, UniProt Q9NY46); details: IonWorks Quattro, read-out: IWQ Use Nav1.3
[2] = biological target: hNav1.7 (Homo sapiens, UniProt Q15858); format: cell-based
[3] = biological target: hNav1.5 (Homo sapiens, UniProt Q14524); details: IonWorks Quattro, read-out: IWQ Use Nav1.5
[4] = Table 22, IonWorks Quattro, use, […], read-out: IWQ Use Nav1.7

Chain of hNav1.7 (Q15858 whole entry, looked up): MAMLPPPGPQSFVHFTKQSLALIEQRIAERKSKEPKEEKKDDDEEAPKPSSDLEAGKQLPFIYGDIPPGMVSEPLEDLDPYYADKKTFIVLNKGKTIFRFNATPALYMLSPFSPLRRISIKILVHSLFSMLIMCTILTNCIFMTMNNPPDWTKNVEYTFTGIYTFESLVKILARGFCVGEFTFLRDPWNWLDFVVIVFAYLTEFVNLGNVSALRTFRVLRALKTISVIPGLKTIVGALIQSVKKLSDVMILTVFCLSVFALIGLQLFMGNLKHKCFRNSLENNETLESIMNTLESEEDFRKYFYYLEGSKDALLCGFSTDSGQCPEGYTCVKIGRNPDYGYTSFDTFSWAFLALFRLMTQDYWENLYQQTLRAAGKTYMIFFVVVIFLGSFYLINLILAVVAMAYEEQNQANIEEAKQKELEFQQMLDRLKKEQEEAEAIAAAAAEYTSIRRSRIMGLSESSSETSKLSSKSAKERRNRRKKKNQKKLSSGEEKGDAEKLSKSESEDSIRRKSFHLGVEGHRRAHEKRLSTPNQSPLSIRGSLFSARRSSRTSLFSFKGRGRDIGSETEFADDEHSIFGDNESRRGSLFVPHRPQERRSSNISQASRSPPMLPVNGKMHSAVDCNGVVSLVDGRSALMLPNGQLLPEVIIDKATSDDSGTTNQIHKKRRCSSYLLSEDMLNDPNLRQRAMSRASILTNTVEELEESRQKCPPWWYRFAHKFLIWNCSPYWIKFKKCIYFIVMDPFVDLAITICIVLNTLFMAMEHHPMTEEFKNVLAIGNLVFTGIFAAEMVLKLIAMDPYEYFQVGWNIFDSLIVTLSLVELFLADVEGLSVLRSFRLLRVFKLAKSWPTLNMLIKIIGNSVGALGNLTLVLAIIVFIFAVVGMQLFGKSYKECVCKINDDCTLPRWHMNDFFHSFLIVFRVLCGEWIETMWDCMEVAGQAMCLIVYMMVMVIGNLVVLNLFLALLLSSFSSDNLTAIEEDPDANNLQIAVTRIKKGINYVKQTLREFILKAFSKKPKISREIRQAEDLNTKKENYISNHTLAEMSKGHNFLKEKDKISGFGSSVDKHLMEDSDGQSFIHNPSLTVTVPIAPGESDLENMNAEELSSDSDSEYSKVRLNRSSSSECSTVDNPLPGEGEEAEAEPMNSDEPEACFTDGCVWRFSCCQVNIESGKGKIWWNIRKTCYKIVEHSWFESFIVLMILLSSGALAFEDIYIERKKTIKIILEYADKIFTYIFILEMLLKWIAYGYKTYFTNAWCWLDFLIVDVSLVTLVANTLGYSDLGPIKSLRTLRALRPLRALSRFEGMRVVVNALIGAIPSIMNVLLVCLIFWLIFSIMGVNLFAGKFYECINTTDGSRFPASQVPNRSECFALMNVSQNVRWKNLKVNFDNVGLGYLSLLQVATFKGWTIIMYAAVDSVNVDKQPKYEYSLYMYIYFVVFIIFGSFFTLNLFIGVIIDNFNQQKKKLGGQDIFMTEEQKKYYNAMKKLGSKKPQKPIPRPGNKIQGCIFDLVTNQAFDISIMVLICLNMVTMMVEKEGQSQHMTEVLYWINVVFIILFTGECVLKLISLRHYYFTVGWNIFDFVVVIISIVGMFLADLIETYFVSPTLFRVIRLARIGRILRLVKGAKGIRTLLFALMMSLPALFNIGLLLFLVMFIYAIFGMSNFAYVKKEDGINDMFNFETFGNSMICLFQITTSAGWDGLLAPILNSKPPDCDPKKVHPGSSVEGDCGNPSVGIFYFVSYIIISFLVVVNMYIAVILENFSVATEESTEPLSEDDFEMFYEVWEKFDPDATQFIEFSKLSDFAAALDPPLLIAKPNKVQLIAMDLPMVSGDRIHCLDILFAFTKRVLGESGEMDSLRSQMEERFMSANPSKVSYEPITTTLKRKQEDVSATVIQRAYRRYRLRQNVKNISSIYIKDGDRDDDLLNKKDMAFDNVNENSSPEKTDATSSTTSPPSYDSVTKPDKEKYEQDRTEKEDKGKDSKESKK
Chain of hNav1.5 (Q14524 whole entry, looked up): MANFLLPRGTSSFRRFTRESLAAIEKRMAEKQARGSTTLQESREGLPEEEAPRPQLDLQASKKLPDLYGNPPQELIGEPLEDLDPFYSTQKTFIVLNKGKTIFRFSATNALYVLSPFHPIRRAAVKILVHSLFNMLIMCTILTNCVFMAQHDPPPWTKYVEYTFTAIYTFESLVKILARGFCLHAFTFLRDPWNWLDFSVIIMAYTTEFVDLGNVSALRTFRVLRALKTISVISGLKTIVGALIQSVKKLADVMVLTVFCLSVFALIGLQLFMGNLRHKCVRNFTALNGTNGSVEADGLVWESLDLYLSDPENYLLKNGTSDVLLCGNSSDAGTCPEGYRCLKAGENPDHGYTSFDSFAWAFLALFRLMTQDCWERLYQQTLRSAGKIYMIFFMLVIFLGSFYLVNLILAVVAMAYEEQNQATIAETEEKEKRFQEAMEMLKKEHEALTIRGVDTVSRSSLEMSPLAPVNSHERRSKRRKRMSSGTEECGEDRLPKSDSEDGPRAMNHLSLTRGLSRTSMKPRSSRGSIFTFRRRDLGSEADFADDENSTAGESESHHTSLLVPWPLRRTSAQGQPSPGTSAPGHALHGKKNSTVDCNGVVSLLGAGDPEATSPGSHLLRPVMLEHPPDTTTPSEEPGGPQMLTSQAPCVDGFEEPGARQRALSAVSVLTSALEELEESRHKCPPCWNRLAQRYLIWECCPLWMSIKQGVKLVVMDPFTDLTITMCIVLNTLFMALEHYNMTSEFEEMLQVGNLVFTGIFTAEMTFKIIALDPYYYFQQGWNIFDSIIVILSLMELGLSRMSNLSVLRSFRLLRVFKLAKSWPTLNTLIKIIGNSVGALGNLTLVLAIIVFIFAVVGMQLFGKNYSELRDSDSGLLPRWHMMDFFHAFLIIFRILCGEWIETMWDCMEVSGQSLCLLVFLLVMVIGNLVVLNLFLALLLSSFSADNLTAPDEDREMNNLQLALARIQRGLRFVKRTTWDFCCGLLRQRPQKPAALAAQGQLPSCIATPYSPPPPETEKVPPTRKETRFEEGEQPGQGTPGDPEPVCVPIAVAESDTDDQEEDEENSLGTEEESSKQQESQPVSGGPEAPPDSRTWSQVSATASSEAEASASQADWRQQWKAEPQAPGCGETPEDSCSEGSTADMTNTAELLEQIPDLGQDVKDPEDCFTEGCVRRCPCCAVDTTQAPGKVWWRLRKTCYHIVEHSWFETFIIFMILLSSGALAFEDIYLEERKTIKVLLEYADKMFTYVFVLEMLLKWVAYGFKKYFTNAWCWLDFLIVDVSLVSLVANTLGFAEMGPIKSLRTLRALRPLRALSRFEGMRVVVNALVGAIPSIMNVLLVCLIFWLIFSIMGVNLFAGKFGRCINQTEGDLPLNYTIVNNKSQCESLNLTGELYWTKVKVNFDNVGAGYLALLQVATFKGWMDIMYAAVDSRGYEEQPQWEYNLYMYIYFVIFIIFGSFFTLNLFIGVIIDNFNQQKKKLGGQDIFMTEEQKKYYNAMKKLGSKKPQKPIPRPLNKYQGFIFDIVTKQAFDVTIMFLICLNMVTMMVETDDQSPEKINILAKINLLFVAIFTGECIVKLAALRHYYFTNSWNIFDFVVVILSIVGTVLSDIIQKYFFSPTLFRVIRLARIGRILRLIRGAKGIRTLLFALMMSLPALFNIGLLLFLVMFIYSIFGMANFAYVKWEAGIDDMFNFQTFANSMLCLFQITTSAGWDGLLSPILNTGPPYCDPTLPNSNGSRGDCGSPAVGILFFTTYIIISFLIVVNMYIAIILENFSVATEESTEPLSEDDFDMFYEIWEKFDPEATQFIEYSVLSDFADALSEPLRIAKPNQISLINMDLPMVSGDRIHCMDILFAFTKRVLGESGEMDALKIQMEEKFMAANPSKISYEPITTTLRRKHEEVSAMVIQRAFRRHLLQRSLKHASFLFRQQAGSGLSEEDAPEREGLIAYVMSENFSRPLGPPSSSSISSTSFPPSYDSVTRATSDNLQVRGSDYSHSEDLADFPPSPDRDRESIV

Compound	pIC50 ([1]; Use)	pIC50 [2]	pIC50 ([3]; Use)	pIC50 ([1]; Table 22, use, […])	pIC50 [2, 4]	pIC50 ([3]; Table 22, use, […])
CC[C@H](C)[C@@H]1NC(=O)[C@@H]2CSSC[C@@H]3NC(=O)[C@H](C(C)C)NC(=O)[C@H](CC(C)C)NC(=O)[C@H](CC(N)=O)NC(=O)[C@@H]4CCCN4C(=O)[C@H](CCCNC(=N)N)NC(=O)[C@H](CSSC[C@H](NC(=O)[C@@H](N)CC(=O)O)C(=O)N[C@@H](CC(C)C)C(=O)NCC(=O)N[C@@H](Cc4ccccc4)C(=O)N[C@@H](CCSC)C(=O)N[C@@H](CCCNC(=N)N)C(=O)N[C@@H](CCCCN)C(=O)N2)NC(=O)[C@H](CSSC[C@@H](C(=O)N[C@@H](CCCCN)C(=O)N[C@@H](Cc2ccc(O)cc2)C(=O)N[C@H](C(=O)N[C@@H](Cc2ccccc2)C(N)=O)C(C)C)NC(=O)[C@H](Cc2c[nH]c4ccccc24)NC(=O)[C@H](CCCCN)NC(=O)[C@H](Cc2c[nH]cn2)NC(=O)[C@H]([C@@H](C)O)NC(=O)[C@H](CCCNC(=NC)NC)NC(=O)[C@H](CO)NC3=O)NC(=O)[C@H](CCCCN)NC(=O)[C@H](CC(=O)O)NC(=O)[C@H](CC(N)=O)NC(=O)[C@H](CC(=O)O)NC(=O)[C@@H]2CCCN2C1=O [compound 336]	6.96	6.85	5.04			
CC[C@H](C)[C@@H]1NC(=O)[C@@H]2CSSC[C@@H]3NC(=O)[C@H](C(C)C)NC(=O)[C@H](CC(C)C)NC(=O)[C@H](CC(N)=O)NC(=O)[C@@H]4CCCN4C(=O)[C@H](CCCNC(=N)N)NC(=O)[C@H](CSSC[C@H](NC(=O)[C@@H](N)CC(=O)O)C(=O)N[C@@H](CC(C)C)C(=O)NCC(=O)N[C@@H](Cc4ccccc4)C(=O)N[C@@H](CCSC)C(=O)N[C@@H](CCCNC(=N)N)C(=O)N[C@@H](CCCCN)C(=O)N2)NC(=O)[C@H](CSSC[C@@H](C(=O)N[C@@H](CCCCN)C(=O)N[C@@H](Cc2ccc(O)cc2)C(=O)N[C@H](C(=O)N[C@@H](Cc2ccccc2)C(N)=O)C(C)C)NC(=O)[C@H](Cc2c[nH]c4ccccc24)NC(=O)[C@H](CCCCN)NC(=O)[C@H](Cc2c[nH]cn2)NC(=O)[C@H](CO)NC(=O)[C@H](CCCNC(=N)N)NC(=O)[C@H](CO)NC3=O)NC(=O)[C@H](CCCCN)NC(=O)[C@H](CC(=O)O)NC(=O)[C@H](CC(N)=O)NC(=O)[C@H](CC(=O)O)NC(=O)[C@@H]2CCCN2C1=O [compound 338] (H-DCLGFMRKCIPDNDKCCRPNLVCSRSHKWCKYVF-NH2; disulfide 2-17, 9-23, 16-30)				7.05	7.00	4.91
CC[C@H](C)[C@@H]1NC(=O)[C@@H]2CSSC[C@@H]3NC(=O)[C@H](C(C)C)NC(=O)[C@H](CC(C)C)NC(=O)[C@H](CC(N)=O)NC(=O)[C@@H]4CCCN4C(=O)[C@H](CCCNC(=N)N)NC(=O)[C@H](CSSC[C@H](NC(=O)[C@@H](N)CC(=O)O)C(=O)N[C@@H](CC(C)C)C(=O)NCC(=O)N[C@@H](Cc4ccccc4)C(=O)N[C@@H](CCSC)C(=O)N[C@@H](CCCNC(=N)N)C(=O)N[C@@H](CCCCN)C(=O)N2)NC(=O)[C@H](CSSC[C@@H](C(=O)N[C@@H](CCCCN)C(=O)N[C@@H](Cc2ccc(O)cc2)C(=O)N[C@H](C(=O)N[C@@H](Cc2ccccc2)C(N)=O)C(C)C)NC(=O)[C@H](Cc2c[nH]c4ccccc24)NC(=O)[C@H](CCCCN)NC(=O)[C@H](Cc2c[nH]cn2)NC(=O)[C@H](CCC(N)=O)NC(=O)[C@H](CCCNC(=N)N)NC(=O)[C@H](CO)NC3=O)NC(=O)[C@H](CCCCN)NC(=O)[C@H](CC(=O)O)NC(=O)[C@H](CC(N)=O)NC(=O)[C@H](CC(=O)O)NC(=O)[C@@H]2CCCN2C1=O [compound 339] (H-DCLGFMRKCIPDNDKCCRPNLVCSRQHKWCKYVF-NH2; disulfide 2-17, 9-23, 16-30)				7.05	6.85	4.75
CC[C@H](C)[C@@H]1NC(=O)[C@@H]2CSSC[C@@H]3NC(=O)[C@H](C(C)C)NC(=O)[C@H](CC(C)C)NC(=O)[C@H](CC(N)=O)NC(=O)[C@@H]4CCCN4C(=O)[C@H](CCCNC(=N)N)NC(=O)[C@H](CSSC[C@H](NC(=O)[C@@H](N)CC(=O)O)C(=O)N[C@@H](CC(C)C)C(=O)NCC(=O)N[C@@H](Cc4ccccc4)C(=O)N[C@@H](CCSC)C(=O)N[C@@H](CCCNC(=N)N)C(=O)N[C@@H](CCCCN)C(=O)N2)NC(=O)[C@H](CSSC[C@@H](C(=O)N[C@@H](CCCCN)C(=O)N[C@@H](Cc2ccc(O)cc2)C(=O)N[C@H](C(=O)N[C@@H](Cc2ccccc2)C(N)=O)C(C)C)NC(=O)[C@H](Cc2c[nH]c4ccccc24)NC(=O)[C@H](CCCCN)NC(=O)[C@H](Cc2c[nH]cn2)NC(=O)[C@H](Cc2ccc(O)cc2)NC(=O)[C@H](CCCNC(=N)N)NC(=O)[C@H](CO)NC3=O)NC(=O)[C@H](CCCCN)NC(=O)[C@H](CC(=O)O)NC(=O)[C@H](CC(N)=O)NC(=O)[C@H](CC(=O)O)NC(=O)[C@@H]2CCCN2C1=O [compound 340] (H-DCLGFMRKCIPDNDKCCRPNLVCSRYHKWCKYVF-NH2; disulfide 2-17, 9-23, 16-30)				7.22	7.10	5.26
CC[C@H](C)[C@@H]1NC(=O)[C@@H]2CSSC[C@@H]3NC(=O)[C@H](C(C)C)NC(=O)[C@H](CC(C)C)NC(=O)[C@H](CC(N)=O)NC(=O)[C@@H]4CCCN4C(=O)[C@H](CCCNC(=N)N)NC(=O)[C@H](CSSC[C@H](NC(=O)[C@@H](N)CC(=O)O)C(=O)N[C@@H](CC(C)C)C(=O)NCC(=O)N[C@@H](Cc4ccccc4)C(=O)N[C@@H](CCSC)C(=O)N[C@@H](CCCNC(=N)N)C(=O)N[C@@H](CCCCN)C(=O)N2)NC(=O)[C@H](CSSC[C@@H](C(=O)N[C@@H](CCCCN)C(=O)N[C@@H](Cc2ccc(O)cc2)C(=O)N[C@H](C(=O)N[C@@H](Cc2ccccc2)C(N)=O)C(C)C)NC(=O)[C@H](Cc2c[nH]c4ccccc24)NC(=O)[C@H](CCCCN)NC(=O)[C@H](Cc2c[nH]cn2)NC(=O)[C@H](Cc2ccccc2)NC(=O)[C@H](CCCNC(=N)N)NC(=O)[C@H](CO)NC3=O)NC(=O)[C@H](CCCCN)NC(=O)[C@H](CC(=O)O)NC(=O)[C@H](CC(N)=O)NC(=O)[C@H](CC(=O)O)NC(=O)[C@@H]2CCCN2C1=O [compound 341] (H-DCLGFMRKCIPDNDKCCRPNLVCSRFHKWCKYVF-NH2; disulfide 2-17, 9-23, 16-30)				7.00	7.10	5.23
CC[C@H](C)[C@@H]1NC(=O)[C@@H]2CSSC[C@@H]3NC(=O)[C@H](C(C)C)NC(=O)[C@H](CC(C)C)NC(=O)[C@H](CC(N)=O)NC(=O)[C@@H]4CCCN4C(=O)[C@H](CCCNC(=N)N)NC(=O)[C@H](CSSC[C@H](NC(=O)[C@@H](N)CC(=O)O)C(=O)N[C@@H](CC(C)C)C(=O)NCC(=O)N[C@@H](Cc4ccccc4)C(=O)N[C@@H](CCSC)C(=O)N[C@@H](CCCNC(=N)N)C(=O)N[C@@H](CCCCN)C(=O)N2)NC(=O)[C@H](CSSC[C@@H](C(=O)N[C@@H](CCCCN)C(=O)N[C@@H](Cc2ccc(O)cc2)C(=O)N[C@H](C(=O)N[C@@H](Cc2ccccc2)C(N)=O)C(C)C)NC(=O)[C@H](Cc2c[nH]c4ccccc24)NC(=O)[C@H](CCCCN)NC(=O)[C@H](Cc2c[nH]cn2)NC(=O)[C@H](CC(N)=O)NC(=O)[C@H](CCCNC(=N)N)NC(=O)[C@H](CO)NC3=O)NC(=O)[C@H](CCCCN)NC(=O)[C@H](CC(=O)O)NC(=O)[C@H](CC(N)=O)NC(=O)[C@H](CC(=O)O)NC(=O)[C@@H]2CCCN2C1=O [compound 342] (H-DCLGFMRKCIPDNDKCCRPNLVCSRNHKWCKYVF-NH2; disulfide 2-17, 9-23, 16-30)				7.00	7.05	5.20
CC[C@H](C)[C@@H]1NC(=O)[C@@H]2CSSC[C@@H]3NC(=O)[C@H](C(C)C)NC(=O)[C@H](CC(C)C)NC(=O)[C@H](CC(N)=O)NC(=O)[C@@H]4CCCN4C(=O)[C@H](CCCNC(=N)N)NC(=O)[C@H](CSSC[C@H](NC(=O)[C@@H](N)CC(=O)O)C(=O)N[C@@H](CC(C)C)C(=O)NCC(=O)N[C@@H](Cc4ccccc4)C(=O)N[C@@H](CCSC)C(=O)N[C@@H](CCCNC(=N)N)C(=O)N[C@@H](CCCCN)C(=O)N2)NC(=O)[C@H](CSSC[C@@H](C(=O)N[C@@H](CCCCN)C(=O)N[C@@H](Cc2ccc(O)cc2)C(=O)N[C@H](C(=O)N[C@@H](Cc2ccccc2)C(N)=O)C(C)C)NC(=O)[C@H](Cc2c[nH]c4ccccc24)NC(=O)[C@H](CCCCN)NC(=O)[C@H](Cc2c[nH]cn2)NC(=O)CNC(=O)[C@H](CCCNC(=N)N)NC(=O)[C@H](CO)NC3=O)NC(=O)[C@H](CCCCN)NC(=O)[C@H](CC(=O)O)NC(=O)[C@H](CC(N)=O)NC(=O)[C@H](CC(=O)O)NC(=O)[C@@H]2CCCN2C1=O [compound 343] (H-DCLGFMRKCIPDNDKCCRPNLVCSRGHKWCKYVF-NH2; disulfide 2-17, 9-23, 16-30)				7.05	7.00	5.39
CC[C@H](C)[C@@H]1NC(=O)[C@@H]2CSSC[C@@H]3NC(=O)[C@H](C(C)C)NC(=O)[C@H](CC(C)C)NC(=O)[C@H](CC(N)=O)NC(=O)[C@@H]4CCCN4C(=O)[C@H](CCCNC(=N)N)NC(=O)[C@H](CSSC[C@H](NC(=O)[C@@H](N)CC(=O)O)C(=O)N[C@@H](CC(C)C)C(=O)NCC(=O)N[C@@H](Cc4ccccc4)C(=O)N[C@@H](CCSC)C(=O)N[C@@H](CCCNC(=N)N)C(=O)N[C@@H](CCCCN)C(=O)N2)NC(=O)[C@H](CSSC[C@@H](C(=O)N[C@@H](CCCCN)C(=O)N[C@@H](Cc2ccc(O)cc2)C(=O)N[C@H](C(=O)N[C@@H](Cc2ccccc2)C(N)=O)C(C)C)NC(=O)[C@H](Cc2c[nH]c4ccccc24)NC(=O)[C@H](CCCCN)NC(=O)[C@H](Cc2c[nH]cn2)NC(=O)[C@H](C(C)C)NC(=O)[C@H](CCCNC(=N)N)NC(=O)[C@H](CO)NC3=O)NC(=O)[C@H](CCCCN)NC(=O)[C@H](CC(=O)O)NC(=O)[C@H](CC(N)=O)NC(=O)[C@H](CC(=O)O)NC(=O)[C@@H]2CCCN2C1=O [compound 344] (H-DCLGFMRKCIPDNDKCCRPNLVCSRVHKWCKYVF-NH2; disulfide 2-17, 9-23, 16-30)				7.40	7.22	5.05
